Patent US20140023589A1, “FRMD4A ANTAGONISTS AND THEIR USES” (CANCER RESEARCH TECHNOLOGY LIMITED, priority 2011, published 2014)
Entries after “also recorded” stand apart in the source; their conditions may differ.

Experiments:
SCC cells = assay: Incucyte timelapse growth of SCC cells (cell line not specified); format: cell-based, human; settings: SCCs cultured on HA coated plates
Method: For Incucyte assays, 1000 cells were plated in triplicate for each condition, in a 48-well plate. Plates were imaged every 3 hours for 7 days.
Having established that FRMD4A has a functional role in SCC proliferation and tumour growth and that it is also modulating the differentiation of such cells, in part perhaps via cancer stem cells and is a key mediator of the Hippo pathway control in SCCs, the present inventors recognised that FRMD4A represents a potential target for therapeutic options. Currently many targeted antibody therapies are in clinical use or undergoing trials to determine their efficacy in the treatment of several malignant and non-malignant diseases. To test if any of the generated antibodies developed against FRMD4A may have a blocking effect on SCCs, the antibodies were added to cells grown in the Incucyte timelapse imaging system.

SCC13 cells [1] = assay: Colony forming assay, SCC13; format: cell-based, human; settings: plates coated with HA
Method: For colony forming assays, 100 cells were plated in triplicate in 10 cm plates. After 14 days, cultures were fixed and stained with 1% rhodamine B and 1% Nile blue (Acros Organic). Colony-forming efficiency was defined as the percentage of plated cells that formed a colony of three or more cells.

CD44 and FRMD4A staining = assay: Immunostaining of cells grown on HA coated coverslips; format: cell-based, human
[2] = tested on: SCC13 back skin xenograft; assay: SCC13 back skin xenograft, hyaluronic acid treatment; format: in vivo, mouse
Method: (§1) All mice used were NOD.Cg-Prkdc^scid I12rg^tm1Wj1/SzJ or NOD/SCID Gamma (NSG) as they are commonly known. Mice were originally purchased from the Jackson Laboratories (Maine, USA) and then bred in-house. Experiments were subject to Cancer Research UK ethical review and were performed under the terms of a U.K. Government Home Office license. Tongue xenografts were carried out using inhalation anaesthesia and injection into the mucosa with a 30 g needle and 1 ml syringe. Mice were grafted using inhalation anaesthesia. An area of skin on the back of each mouse was shaved and cleaned with a betadine solution. Using a 6 mm punch biopsy punch a full thickness wound was created, into which the silicone chamber was inserted and stapled in place. A preparation of cells could then be injected into the chamber. After one week the top of the silicone chamber was cut off to allow the tumour to develop exposed to the normal skin-air interface. After a further week the whole silicone chamber was carefully removed. Mice were scanned with the Xenogen IVIS following an i.p. injection of luciferin (10 μl/g).
Mice were grafted into the back skin with 1×10E6 SCC13 cells.
After one week an initial measurement was made with the Xenogen IVIS. Following this, each mouse was directly injected into the tumour with 200 μl of 0.1% HA. […]

[3] = injection in the skin and knee joint; cited from earlier work
SCC13 cells [4] = assay: SCC13 cells grown in the presence of 17-DMAG in vitro; format: cell-based, human; settings: range of concentrations
SCC25 tongue xenograft = assay: SCC25 tongue xenograft, 17-DMAG treatment; format: in vivo, mouse; settings: weekly i.p. injections, compared to vehicle control
Method: as §1
Mice were tongue grafted with 1×10E5 SCC25 cells. After one week an initial measurement was made with the Xenogen IVIS. Following this, each mouse was i.p injected with either 17-DMAG or vehicle control. […]

[5] = tested on: normal human keratinocytes; assay: Induced differentiation of normal human keratinocytes; format: cell-based
Excerpt: To determine the expression of FRMD4A mRNA in normal human skin we carried out in-situ hybridisations on normal human foreskin. […] Using the Zeiss PALM Laser Capture Microdissection system, samples were collected separately from the basal and granular layers of human abdomen skin sections. […] Levels of FRMD4A were contrary to this, with high levels in the less differentiated basal layer, which dropped to almost nothing in the more differentiated granular layer (FIG. 1B). Similarly, normal human keratinocytes grown in serum free culture were induced to differentiate, by the addition of AG1478 and BMP2/7 (FIG. 1C). Differentiation of the keratinocytes was confirmed by increased levels of transglutaminase in the presence of these agents alone compared to treatment with vehicle alone. Addition of both together led to expression of even higher levels of the differentiation marker TG-1. FRMD4A levels were high in the vehicle treated sample, but became barely detectable in the differentiated samples (FIG. 1C) showing that FRMD4A is associated with less differentiated cell types.

For hyaluronic acid [HA], the overall growth rate (SCC cells) was “decrease in growth rate; also recorded: reduces the growth of SCCs”, the average colony area (SCC13 cells [1]) was “reduction in average colony area” and the “average colony staining intensity” value (SCC13 cells [1]) was “reduction”. For the same compound, the colony forming efficiency (SCC13 cells [1]) was “reduction in colony forming efficiency”, the CD44 staining (CD44 and FRMD4A staining) was “increase in CD44 staining” and the “nuclear FRMD4A staining” value (CD44 and FRMD4A staining) was “loss of nuclear FRMD4A staining”. The survival ([2]; HA injection of xenograft tumours) was “increased survival”, the tumour growth rate ([2]; weekly intra-tumour injection, compared with PBS) was “reduced growth rate; also recorded: reduced the growth of the tumour” and the toxic effects [3] was “no apparent toxic effects”.
For `CO[C@H]1/C=C\C=C(/C)C(=O)NC2=CC(=O)C(NCCN(C)C)=C(C[C@@H](C)C[C@H](OC)[C@H](O)[C@@H](C)/C=C(\C)[C@@H]1OC(N)=O)C2=O` [17-DMAG, 17-Dimethylaminoethylamino-17-demethoxygeldanamycin], the “killing of cells in vitro” value (SCC13 cells [4]) was “readily killed over a range of concentrations; also recorded: dramatic effect” and the progression of tumours (SCC25 tongue xenograft) was “slower progression of their tumours”.
In the case of `COc1cc2ncnc(Nc3cccc(Cl)c3)c2cc1OC` [AG1478], the FRMD4A levels [5] was “downregulation of FRMD4A levels” and the TG1 levels ([5]; differentiation marker) was “upregulation of TG1 levels”.
